In PubChem BioAssay (NCI):
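How tested: cells in 96-well plates exposed to compound for 48 hours at five concentrations. TGI: concentration producing complete growth inhibition.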

How the values were obtained:
Assay in all cases: NCI anticancer screen, dose series, 48 h
SNB-19 CNS = tested on: SNB-19 CNS
NCI-H23 lung = tested on: NCI-H23 lung
SW-620 colon = tested on: SW-620 colon
UO-31 renal = tested on: UO-31 renal
OVCAR-3 ovarian = tested on: OVCAR-3 ovarian
OVCAR-4 ovarian = tested on: OVCAR-4 ovarian
SF-268 CNS = tested on: SF-268 CNS
A549 NSCLC = tested on: A549 NSCLC
TK-10 renal = tested on: TK-10 renal
COLO 205 colon = tested on: COLO 205 colon
MALME-3M melanoma = tested on: MALME-3M melanoma
UACC-62 melanoma = tested on: UACC-62 melanoma
HCT-15 colon = tested on: HCT-15 colon
NCI-H522 lung = tested on: NCI-H522 lung
M14 melanoma = tested on: M14 melanoma
HOP-92 NSCLC = tested on: HOP-92 NSCLC
CAKI-1 renal = tested on: CAKI-1 renal
PC-3 prostate = tested on: PC-3 prostate

| Structure (SMILES) | TGI (SNB-19 CNS) [µM] | TGI (NCI-H23 lung) [µM] | TGI (SW-620 colon) [µM] | TGI (UO-31 renal) [µM] | TGI (OVCAR-3 ovarian) [µM] | TGI (OVCAR-4 ovarian) [µM] | TGI (SF-268 CNS) [µM] | TGI (A549 NSCLC) [µM] | TGI (TK-10 renal) [µM] | TGI (COLO 205 colon) [µM] | TGI (MALME-3M melanoma) [µM] | TGI (UACC-62 melanoma) [µM] | TGI (HCT-15 colon) [µM] | TGI (NCI-H522 lung) [µM] | TGI (M14 melanoma) [µM] | TGI (HOP-92 NSCLC) [µM] | TGI (CAKI-1 renal) [µM] | TGI (PC-3 prostate) [µM] |
| --- | --- | --- | --- | --- | --- | --- | --- | --- | --- | --- | --- | --- | --- | --- | --- | --- | --- | --- |
| C=CCNC(=S)N1c2ccccc2NC(=O)CC1C (stereo unspecified) | > 100 | > 100 | > 100 | > 100 | > 100 | > 100 | > 100 | > 100 | > 100 | > 100 | > 100 | > 100 | > 100 | > 100 | > 100 |  |  |  |
| C=C[C@]1(C)CCC2=C(CCC3C2(C)CCC[C@]3(C)CO)C1 (stereo partly specified) | > 100 | > 100 | > 100 | > 100 | > 100 | > 100 | > 100 | > 100 | > 100 | > 100 | > 100 | > 100 | > 100 | 52.5 | > 100 | > 100 | > 100 |  |
| COc1ccc(CNC2=C(NC(C)=O)C(=O)c3ccccc3C2=O)cc1 | > 50 | 14.7 | 14.9 | 40.2 | 20.8 | 15.1 | > 50 | > 50 | 18.1 | 16.4 | 15.2 | 33.5 | > 50 | 5.17 | > 50 | 13 |  |  |
| CCOc1ccccc1N=Nc1c(-c2ccccc2)nn(C(=O)CC(=O)Nc2cccc(Cl)c2)c1-c1ccccc1 | > 100 | > 100 | > 100 | > 100 | > 100 | > 100 | > 100 | > 100 | > 100 | > 100 | > 100 | > 100 |  | > 100 | > 100 | > 100 | > 100 |  |
| CCOC(=O)C(Cc1ccccc1)NC(=O)c1ccc(N=NN(C)C)cc1 (stereo unspecified) | > 100 | > 100 | > 100 | > 100 | > 100 | > 100 | > 100 | > 100 | > 100 | > 100 | > 100 | > 100 | > 100 | > 100 | > 100 |  | > 100 |  |
| COC1C=CC(C(=O)[N+]2=Cc3[nH]c4ccccc4c3CC2)O1 (stereo unspecified) | > 100 | > 100 | > 100 | > 100 | > 100 | > 100 | > 100 | > 100 | > 100 | > 100 | > 100 | > 100 | > 100 | > 100 | > 100 | > 100 | > 100 |  |
| O=C(O)C(Cc1c[nH]c2ccccc12)N=Cc1nc(-c2ccccc2)oc1O (stereo unspecified) | > 100 | > 100 | > 100 | > 100 | > 100 | > 100 | > 100 | > 100 | > 100 | > 100 | > 100 | > 100 | > 100 | > 100 | > 100 | > 100 |  |  |
| CCCN1CN(C(C(=O)N[C@@H]2C(=O)N3C2SC(C)(C)C3C(=O)O)c2ccccc2)CSC1=S (stereo partly specified) | > 100 | > 100 | 31.7 | > 100 | > 100 | > 100 | > 100 | > 100 | > 100 | > 100 | > 100 | > 100 | > 100 | 81.5 | > 100 | > 100 | > 100 |  |
| COc1ccc(-c2c(C#N)c(-c3ccc(C)cc3)n(NS(=O)(=O)c3ccccc3)c(=O)c2C#N)cc1 | > 100 |  | > 100 |  | > 100 | > 100 | > 100 | > 100 | > 100 | > 100 | > 100 | > 100 | > 100 | > 100 | > 100 | > 100 | > 100 | > 100 |
| O=C(NCc1ccccc1)c1cc2cc(O)c(O)cc2cn1 | > 100 | 46.8 | > 100 | 56.6 | > 100 | > 100 | 75.1 | > 100 | > 100 | > 100 | > 100 | 44.8 | > 100 | > 100 | 43.1 | > 100 | 98.5 |  |
| COC(=O)N/N=C(/CCN1CCCC1)CC(c1ccccc1)c1c(O)c2ccccc2oc1=O (stereo unspecified) | > 100 | > 100 | > 100 | > 100 | > 100 | > 100 | > 100 | > 100 | > 100 | > 100 | > 100 | > 100 | > 100 | > 100 | > 100 |  | > 100 |  |
| COc1ccc(NC(=O)C(=O)C2CNC(=O)NC2=O)c(OC)c1 (stereo unspecified) | > 100 | > 100 | > 100 | > 100 | > 100 | > 100 | > 100 | > 100 | > 100 | > 100 | > 100 | > 100 | > 100 | > 100 | > 100 | > 100 | > 100 |  |
